In US20090082329A1 (AVENTIS PHARMA S.A., priority 2006, published 2009):
pIC50: −log10 of the molar value. Read-outs that look alike come from different tables or passages of the source.

Tests used:
[1] = target: T1, human cytoplasmic domain of IGF-1R (Homo sapiens, UniProt P08069); assay: Kinase IGF-1R test: inhibition of autophosphorylation of the enzyme (HTRF); assay type: biochemical; settings: ATP 120 μM
T1 construct: The human cytoplasmic domain of IGF-1R was cloned by fusion with glutathione S-transferase (GST); made in house; host or cells: SF21 insect cells (baculovirus, pFastBac-GST)
T1 sequence (P08069 960-1367 limits assumed): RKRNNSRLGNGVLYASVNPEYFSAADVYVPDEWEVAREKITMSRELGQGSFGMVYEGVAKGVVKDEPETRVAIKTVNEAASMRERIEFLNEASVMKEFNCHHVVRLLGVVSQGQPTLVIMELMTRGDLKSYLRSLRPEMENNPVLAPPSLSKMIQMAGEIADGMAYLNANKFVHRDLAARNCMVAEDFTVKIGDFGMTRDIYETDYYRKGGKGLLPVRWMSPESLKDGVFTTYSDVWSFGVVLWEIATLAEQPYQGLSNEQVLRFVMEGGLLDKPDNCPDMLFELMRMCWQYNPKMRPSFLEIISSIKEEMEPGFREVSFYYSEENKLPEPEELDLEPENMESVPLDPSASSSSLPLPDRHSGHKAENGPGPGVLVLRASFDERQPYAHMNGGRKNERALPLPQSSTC
Protocol: A) Experimental Protocol for the Kinase IGF-1R Test:
The inhibitory activity of the compounds on IGF1R is determined by measuring the inhibition of autophosphorylation of the enzyme using a time-resolved fluorescence test (HTRF). The human cytoplasmic domain of IGF-1R was cloned by fusion with glutathione S-transferase (GST) in the baculovirus expression vector pFastBac-GST. The protein is expressed in the SF21 cells and purified to about 80% homogeneity. For the enzymatic test, the test compound at 10 mM dissolved in DMSO is diluted in ⅓ steps in a 50 mM Hepes, pH 7.5, 5 mM MnCl2, 50 mM NaCl, 3% Glycerol, 0.025% Tween 20 buffer. To measure the inhibition, the successive dilutions of the compound are preincubated for 30 minutes and 90 minutes in the presence of 5 nM of enzyme, the final DMSO concentration not exceeding 1%. The enzymatic reaction is initiated to have a final ATP concentration of 120 μM, and is stopped after 5 minutes by addition of 100 mM Hepes, pH 7.0 buffer containing 0.4 M of potassium fluoride, 133 mM EDTA, 0.1% BSA, the XL665-labelled antibody anti-GST and the anti-phosphotyrosine antibody conjugated to europium cryptate Eu—K (Cis-Bio Int.). The characteristics of the two fluorophores, XL-665 and Eu—K, are available in G. Mathis et al., Anticancer Research, 1997, 17, pages 3011-3014. The energy transfer between the excited europium cryptate to the acceptor XL665 is proportional to the degree of autophosphorylation of IGF-1R. The specific long-lasting signal of XL-665 is measured in a GENios Pro TECAN plate counter. The inhibition of autophosphorylation of IGF-1R at time 30 minutes and 90 minutes with the test compounds of the invention is calculated relative to a 1% in DMSO control, whose activity is measured in the absence of compound. The curve representing the percentage of inhibition as a function of the log of the concentration is established to determine the concentration corresponding to 50% inhibition (IC50),

MEF-IGF1R cells = assay: Proliferation/viability of MEF-IGF1R (Thymidine [14C] incorporation); assay type: cell-based; settings: rhIGF1 100 ng/mL, incubation 72 hours, read-out: Test C IC50
Protocol: C) Measurement of the Proliferation/Viability of MEF-IGF1R
Cell culture: the MEF-IGF1R cells (stable clone of cells transfected with the receptor hIGF-1R) are cultured at 37° C. under 5% CO2 in EMEM medium containing 10% FCS.
Test procedure: the cells are seeded at 5000 cells per well in 96-well Cytostar plates (Amersham) with 0.2 mL of EMEM culture medium at 37° C. for 18 hours. The cells are then washed twice with EMEM medium and left to culture without serum for 24 hours. The compounds are then added at various concentrations in the presence of rhIGF1 (100 ng/mL) and 0.1 μCi of Thymidine [^14C] (specific activity ˜50 mCi/mmol) to give 0.2 mL of volume per well. After incubation for 72 hours in the presence of the compound, at 37° C. under 5% CO2, the incorporation of Thymidine [^14C] is measured by counting the radioactivity on a Microbeta trilux counter (Perkin-Elmer). The IC50 is determined from 10 increasing concentrations of the compound.
(§1) (i) The tests are performed in duplicate and the mean of the two tests is calculated.
(§2) (ii) The value of the signal of the maximum response is calculated from the positive control: cells stimulated with IGF1 without compound.
(§3) (iii) Value of the signal of the minimum response is calculated from the negative control: cells not stimulated with IGF1 without compound.
(§4) (iv) By using these values as maximum (100%) and minimum (0%), respectively, the data were normalized so as to give a percentage of the maximum response.
(§5) (v) A curve of dose response is plotted and the IC50 (the concentration of which the compound induces a 50% decrease in the signal) of the compound is calculated by non-linear regression analysis.

IGF-1R in MCF7 cells [2] = target: T2, IGF-1R in MCF7 cells (Homo sapiens, UniProt P08069); assay: Autophosphorylation of IGF-1R in MCF7 cells after stimulation with IGF-1 (ELISA); assay type: cell-based; parameters: endogenous in cells; host or cells: MCF-7 cells; settings: MCF-7 cells, compound added one hour before stimulation with IGF1; read-out: Test B IC50
T2 sequence (P08069 31-1367): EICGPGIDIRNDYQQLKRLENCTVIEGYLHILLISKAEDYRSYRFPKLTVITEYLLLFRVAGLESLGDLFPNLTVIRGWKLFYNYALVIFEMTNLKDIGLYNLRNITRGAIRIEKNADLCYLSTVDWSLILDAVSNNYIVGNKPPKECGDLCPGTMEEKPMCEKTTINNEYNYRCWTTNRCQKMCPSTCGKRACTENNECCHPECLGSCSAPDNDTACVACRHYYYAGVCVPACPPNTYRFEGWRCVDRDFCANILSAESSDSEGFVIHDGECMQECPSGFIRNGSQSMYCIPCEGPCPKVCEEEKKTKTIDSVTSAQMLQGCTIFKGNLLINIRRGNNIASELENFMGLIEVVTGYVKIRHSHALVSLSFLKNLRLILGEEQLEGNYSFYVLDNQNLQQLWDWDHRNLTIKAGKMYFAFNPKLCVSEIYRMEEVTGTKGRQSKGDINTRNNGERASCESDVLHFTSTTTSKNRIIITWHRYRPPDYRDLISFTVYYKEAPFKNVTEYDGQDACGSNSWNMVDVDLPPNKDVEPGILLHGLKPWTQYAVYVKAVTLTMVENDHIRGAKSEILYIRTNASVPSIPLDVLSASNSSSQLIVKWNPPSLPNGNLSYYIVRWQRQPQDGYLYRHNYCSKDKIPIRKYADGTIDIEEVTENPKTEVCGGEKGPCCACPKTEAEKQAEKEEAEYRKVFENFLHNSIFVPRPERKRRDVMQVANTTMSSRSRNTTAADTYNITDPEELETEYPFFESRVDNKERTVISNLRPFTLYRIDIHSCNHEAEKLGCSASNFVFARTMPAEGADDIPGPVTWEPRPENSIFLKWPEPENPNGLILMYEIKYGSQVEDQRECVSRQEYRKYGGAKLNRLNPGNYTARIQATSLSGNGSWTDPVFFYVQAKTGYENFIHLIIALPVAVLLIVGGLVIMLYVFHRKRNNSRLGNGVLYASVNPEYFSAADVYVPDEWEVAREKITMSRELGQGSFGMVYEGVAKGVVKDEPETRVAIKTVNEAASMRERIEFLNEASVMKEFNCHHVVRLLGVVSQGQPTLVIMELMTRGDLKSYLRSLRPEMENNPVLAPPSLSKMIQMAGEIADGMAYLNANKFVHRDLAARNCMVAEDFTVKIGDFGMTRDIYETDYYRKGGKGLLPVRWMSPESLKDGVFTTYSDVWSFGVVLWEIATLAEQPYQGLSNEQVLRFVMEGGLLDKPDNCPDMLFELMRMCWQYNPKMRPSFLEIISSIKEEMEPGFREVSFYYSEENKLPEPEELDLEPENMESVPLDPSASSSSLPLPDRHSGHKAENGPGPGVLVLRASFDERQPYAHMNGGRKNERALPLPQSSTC
Protocol: (§6) B) Measurement of the Autophosphorylation of IGF-1R in MCF7 Cells after Stimulation with IGF-1
(§7) Cell Culturing and Execution of the Test:
(§8) The autophosphorylation of IGF1R in the IGF1-induced cells is evaluated by means of an ELISA technique (Enzyme Linked ImmunoSorbent Assay). The MCF-7 are seeded at 60 000 cells per well in 6-well plates and incubated at 37° C., 5% CO2 in medium containing 10% serum. After one night in 10% serum, the cells are deprived of serum for 24 hours. The compounds are added to the medium one hour before stimulation with IGF1. After 10 minutes of stimulation with IGF1, the cells are lysed with a buffer (Hepes 50 mM pH 7.6, Triton X100 1%, orthovanadate 2 mM, protease inhibitor cocktail). The cell lysates are incubated on a 96-well plate precoated with an anti-IGF1R antibody, followed by incubation with an anti-phosphotyrosine antibody coupled to the enzyme peroxidase. The level of peroxidase activity (measured by OD with a luminescent substrate) reflects the phosphorylation status of the receptor.
as §1, §2, §3, §4, §5

IGF-1R in MCF7 cells [3] = target: T2, IGF-1R in MCF7 cells; assay: as above; assay type: cell-based; parameters: The autophosphorylation of IGF1R in the IGF1-induced cells is evaluated by means of an ELISA technique; endogenous in cells; host or cells: MCF-7 cells; settings: MCF-7 cells, compound added one hour before stimulation with IGF1; read-out: Test B IC50
Protocol: as §6, §7, §8, §1, §2
(iii) Value of the signal of the minimum response is calculated from the negative control: cells not stimulated with IGF1 without compound. […]

[4] = preincubation 30 minutes with 5 nM enzyme, read-out: Test A 30′ IC50
[5] = preincubation 90 minutes with 5 nM enzyme, read-out: Test A 90′ IC50

Structure (SMILES)	pIC50 [1, 4]	pIC50 [1, 5]	pIC50 (IGF-1R in MCF7 cells [2])	pIC50 (IGF-1R in MCF7 cells [3])	pIC50 (MEF-IGF1R cells)
CC1(C)C(=O)N(c2ccc(SC(F)(F)F)cc2)C(=O)N1Cc1ccnc(NC(=O)N2CCC2)c1 [Example 27, N-{4-[(5,5-dimethyl-2,4-dioxo-3-{4-[(trifluoro-methyl)thio]phenyl}imidazolidin-1-yl)methyl]pyridin-2-yl}azetidine-1-carboxamide]	7.00 to 8.00	7.00 to 8.00	7.00 to 8.00	–	> 8.00
CC1(C)C(=O)N(c2ccc(SC(F)(F)F)cc2)C(=O)N1Cc1ccnc(NC(=O)N2CCCC2)c1 [Example 28, N-{4-[(5,5-dimethyl-2,4-dioxo-3-{4-[(trifluoromethyl)thio]phenyl}imidazolidin-1-yl)methyl]pyridin-2-yl}pyrrolidine-1-carboxamide]	7.00 to 8.00	7.00 to 8.00	> 8.00	–	7.00 to 8.00
CC1(C)C(=O)N(c2ccc(SC(F)(F)F)cc2)C(=O)N1Cc1ccnc(NC(=O)N2CCOCC2)c1 [Example 29, N-{4-[(5,5-dimethyl-2,4-dioxo-3-{4-[(trifluoro-methyl)thio]phenyl}imidazolidin-1-yl)methyl]pyridin-2-yl}morpholine-4-carboxamide]	7.00 to 8.00	7.00 to 8.00	7.00 to 8.00	–	7.00 to 8.00
CN1CCN(C(=O)Nc2cc(CN3C(=O)N(c4ccc(SC(F)(F)F)cc4)C(=O)C3(C)C)ccn2)CC1 [Example 30, N-{4-[(5,5-dimethyl-2,4-dioxo-3-{4-[(trifluoro-methyl)thio]phenyl}imidazolidin-1-yl)methyl]pyridin-2-yl}-4-methylpiperazine-1-carboxamide]	7.00 to 8.00	> 8.00	7.00 to 8.00	–	< 7.00
CCN(C)C(=O)Nc1cc(CN2C(=O)N(c3ccc(SC(F)(F)F)cc3)C(=O)C2(C)C)ccn1 [Example 34, 3-{4-[(5,5-dimethyl-2,4-dioxo-3-{4-[(trifluoro-methyl)thio]phenyl}imidazolidin-1-yl)methyl]pyridin-2-yl}-1-ethyl-1-methylurea]	7.00 to 8.00	7.00 to 8.00	7.00 to 8.00	–	7.00 to 8.00
CCCN(C)C(=O)Nc1cc(CN2C(=O)N(c3ccc(SC(F)(F)F)cc3)C(=O)C2(C)C)ccn1 [Example 35, 3-{4-[(5,5-dimethyl-2,4-dioxo-3-{4-[(trifluoromethyl)thio]phenyl}imidazolidin-1-yl)methyl]pyridin-2-yl}-1-methyl-1-propylurea]	7.00 to 8.00	7.00 to 8.00	7.00 to 8.00	–	7.00 to 8.00
CCCCN(C)C(=O)Nc1cc(CN2C(=O)N(c3ccc(SC(F)(F)F)cc3)C(=O)C2(C)C)ccn1 [Example 36, 1-butyl-3-{4-[(5,5-dimethyl-2,4-dioxo-3-{4-[(trifluoromethyl)thio]phenyl}imidazolidin-1-yl)methyl]pyridin-2-yl}-1-methylurea]	7.00 to 8.00	7.00 to 8.00	7.00 to 8.00	–	7.00 to 8.00
CN(C)CCCNC(=O)Nc1cc(CN2C(=O)N(c3ccc(SC(F)(F)F)cc3)C(=O)C2(C)C)ccn1 [Example 39, 1-[3-(dimethylamino)propyl]-3-{4-[(5,5-dimethyl-2,4-dioxo-3-{4-[(trifluoromethyl)thio]phenyl}imidazolidin-1-yl)methyl]pyridin-2-yl}urea]	7.00 to 8.00	7.00 to 8.00	< 7.00	–	< 7.00

More lines, main results first:

pIC50 [1, 4]	pIC50 [1, 5]	pIC50 (IGF-1R in MCF7 cells [2])	pIC50 (IGF-1R in MCF7 cells [3])	Structure (SMILES)	pIC50 (MEF-IGF1R cells)
7.00 to 8.00	> 8.00	–	> 8.00	CC1(C)C(=O)N(c2ccc(SC(F)(F)F)cc2)C(=O)N1Cc1ccnc(NC(N)=O)c1 [Example 40A]	7.00 to 8.00
< 7.00	7.00 to 8.00	7.00 to 8.00	–	CC1(C)C(=O)N(c2ccc(SC(F)(F)F)cc2)C(=O)N1Cc1ccnc(Nc2cccc(F)c2)c1 [Example 40C, 1-({2-[(3-fluorophenyl)amino]pyridin-4-yl}methyl)-5,5-dimethyl-3-{4-[(trifluoromethyl)thio]phenyl}imidazolidine-2,4-dione]	7.00 to 8.00
7.00 to 8.00	7.00 to 8.00	7.00 to 8.00	–	CC1(C)C(=O)N(c2ccc(SC(F)(F)F)cc2)C(=O)N1Cc1ccnc(NC2CC2)c1 [Example 40D, 1-{[2-(cyclopropylamino)pyridin-4-yl]methyl}-5,5-dimethyl-3-{4-[(trifluoromethyl)thio]phenyl}imidazolidine-2,4-dione]	< 7.00
7.00 to 8.00	7.00 to 8.00	7.00 to 8.00	–	CC1(C)C(=O)N(c2ccc(SC(F)(F)F)cc2)C(=O)N1Cc1ccnc(Nc2cccnc2Cl)c1 [Example 40E, 1-({2-[(2-chloropyridin-3-yl)amino]pyridin-4-yl}-methyl)-5,5-dimethyl-3-{4-[(trifluoromethyl)thio]phenyl}imidazolidine-2,4-dione]	7.00 to 8.00
< 7.00	7.00 to 8.00	< 7.00	–	CC1(C)C(=O)N(c2ccc(SC(F)(F)F)cc2)C(=O)N1Cc1ccnc(Nc2ccc(Cl)nc2)c1 [Example 40F, 1-({2-[(6-chloropyridin-3-yl)amino]pyridin-4-yl}-methyl)-5,5-dimethyl-3-{4-[(trifluoromethyl)thio]phenyl}imidazolidine-2,4-dione]	< 7.00
7.00 to 8.00	7.00 to 8.00	7.00 to 8.00	–	CC1(C)C(=O)N(c2ccc(SC(F)(F)F)cc2)C(=O)N1Cc1ccnc(Nc2ccc(O)nc2)c1 [Example 40G, 1-({2-[(6-hydroxypyridin-3-yl)amino]pyridin-4-yl}-methyl)-5,5-dimethyl-3-{4-[(trifluoromethyl)thio]phenyl}imidazolidine-2,4-dione]	< 7.00
7.00 to 8.00	> 8.00	7.00 to 8.00	–	COC(=O)Nc1cc(CN2C(=O)N(c3ccc(SC(F)(F)F)cc3)C(=O)C2(C)C)ccn1 [Example 40L, methyl {4-[(5,5-dimethyl-2,4-dioxo-3-{4-[(tri-fluoromethyl)thio]phenyl}imidazolidin-1-yl)methyl]pyridin-2-yl}carbamate]	< 7.00
